# Source: patent publication US4652554A, “Nitro-substituted 1-β-D-arabinofuranosylcytosines” (St. Jude Children's Research Hospital, priority 1982, dated 1987)
# Like-named read-outs stand apart in the source and are kept apart here.
# How the values were obtained:
# Cytidine deaminase = Cytidine deaminase (Mus musculus, UniProt P56389); test: Substrate specificity of cytidine deaminase (spectrophotometric deamination assay); assay type: biochemical; conditions: for Relative initial rate of deamination: 2.5×10^-4 M substrate, 1.3 mg enzyme protein, pH 7.0, 37° C., cytidine = 100
# Experimental: Thus, mouse kidney acetone powder (3 g. obtained from Sigma Chemical Co., St. Louis, Mo.) was extracted at 55°-60° C. for 5 minutes with phosphate buffer (pH 8.0, 0.05M). The extract was filtered through four layers of guaze bandage, and the remaining colloidal materials were removed by centrifugation at 20,000 g. for 10 minutes. The supernatant was then filtered through a Nalgene filter unit (0.45 μm grid membrane) to give a clear yellowish filtrate that was adjusted to 40% saturation by the addition of solid ammonium sulfate (24 g/100 ml. of filtrate) with stirring at room temperature, and stirring was continued for 30 minutes. After removal of the precipitate by centrifugation (20,000 g. for 30 minutes), the active supernatant was adjusted to 70% saturation by further addition of ammonium sulfate (24 g/100 ml of supernatant). The resulting precipitate, recovered by centrifugation (20,000 g. for 30 minutes), was dissolved in 4 ml. of phosphate buffer (pH 7.0, 0.05M) and dialyzed twice against 2 liters of the same buffer.
# Protein content was determined by Bio-Rad Protein Assay. […] All reaction mixtures contained 2.5×10^-4 M of substrate and 1.3 mg of enzyme protein in a final volume of 1.0 ml. of phosphate buffer (pH 7.0, 0.05M).
# [1] = tested on: experimental tumors in animals; conditions: cited from earlier work
# CCFR-CEM/ara-C (mutant) = test: Cytotoxicity (cell growth inhibition), ara-C resistant mutant; assay type: cell-based; conditions: Homo sapiens, read-out: IC50 (molar conc. for 50% inhib. of cell growth)
# RPMI-6410 (B-cells) = test: Cytotoxicity (cell growth inhibition), RPMI-6410; assay type: cell-based; conditions: Homo sapiens, read-out: IC50 (molar conc. for 50% inhib. of cell growth)
# CCRF-CEM (T-cells) = test: Cytotoxicity (cell growth inhibition), CCRF-CEM; assay type: cell-based; conditions: Homo sapiens, read-out: IC50 (molar conc. for 50% inhib. of cell growth)
# murine leukemia L1210 = test: In vivo L1210 leukemia cell number in peritoneal cavity 24 h after single i.p. dose; parameters: species or system murine (B6D2F1/J female mice); conditions: 720 mg/kg i.p., 24 hours after treatment (day 6)
# Experimental: 1-(2-O-Nitro-β-D-arabinofuranosyl)cytosine (nitrara-C) is a powerful anti-neoplastic agent particularly against the leukemias.
# B6D2F1 /J female mice weighing ~20 g. were inoculated intraperitoneally with 1×10^5 cells of the murine leukemia, L1210. Five days later, the leukemia cells were washed from the peritoneal cavities of untreated mice, and baseline counts were made. Concomitantly, other groups of mice were treated i.p. with either ara-C.HCl or nitrara-C.HCl. Each drug was administered at a level of 720 mg/kg in a volume of 0.01 ml/gm of mouse weight. Twenty-four hours later, on day 6, cells were washed from the peritoneal cavities of both treated and NaCl-injected mice, and cell numbers were compared.
# Five days after the intraperitoneal inoculation of B6D2F1 /J mice with one hundred thousand cells of leukemia L1210, an average of 255 million cells were recovered from the abdominal compartments of untreated mice. Twenty-four hours later, this value had increased by 52 percent for NaCl-injected mice, but had declined by 90 percent for animals that received 720 mg/kg of nitrara-C and 77% for ara-C treated group.
# MOLT-4 (T-cells) = test: Cytotoxicity (cell growth inhibition), MOLT-4; assay type: cell-based; conditions: Homo sapiens, read-out: IC50 (molar conc. for 50% inhib. of cell growth)
# human leukemia cells = test: Cytotoxicity to human leukemia cells in culture, summary
# Experimental: Experiments were also carried out to determine the growth potential of cultured human lymphoblasts in the presence of nitrara-C in tissue culture.
# L1210 = test: Life-span of mice inoculated i.p. with L1210 (3×10^6 cells), treatment started 24 h after implantation; assay type: in vivo, murine (B6D2F1/J female mice); conditions: for indefinite cures (60 day survivors): 5 mice per group; for extension of lifespan: 2000 mg/kg
# Experimental: In a similar further study, B6D2F1 /J female mice were inoculated i.p. with 3×10^6 cells of L1210. Treatment was started 24 hours after tumor implantation. Nitrara-C hydrochloride treatment regimens were as follows:
# Injections of 0.9 percent saline were used as a control.
# On regimen 1, statistically significant increase in life-span was obtained with dosages higher than 34 mg/kg.
# [2] = Effect of cytidine deaminase on cytotoxicity for CCRF-CEM cells; conditions: cytidine deaminase
# CCRF-CEM cells = test: as above; conditions: Homo sapiens, CCRF-CEM
# [3] = human leukemia cells in culture
compound,measurement,setting,value
"Nc1ccn([C@H]2C[C@H](O)[C@@H](CO)O2)c(=O)n1 [2'-Deoxycytidine, reference compound]",Relative initial rate of deamination,Cytidine deaminase,39
"Nc1ccn([C@@H]2O[C@H](CO)[C@@H](O)[C@@H]2O)c(=O)n1 [Ara-C, 1-β-D-arabinofuranosylcytosine]",activity in experimental tumors (in words),[1],active in several experimental tumors in animals
same,IC50,CCFR-CEM/ara-C (mutant); 48 h,100 µM
same,IC50,"RPMI-6410 (B-cells); RPMI 6410, 48 h",0.06 µM
same,IC50,"CCRF-CEM (T-cells); CCRF-CEM, 48 h",0.02 µM
same,decline in number of L1210 cells recovered from abdominal compartment,murine leukemia L1210,77%
same,IC50,"MOLT-4 (T-cells); MOLT-4, 48 h",0.01 µM
same,dependence of cytotoxicity on phosphorylation (in words),human leukemia cells,cytotoxicity depends on phosphorylation
"Cl.Nc1ccn([C@@H]2O[C@H](CO)[C@@H](O)[C@@H]2O[N+](=O)[O-])c(=O)n1 [Nitrara-C hydrochloride, 1-(2-O-Nitro-β-D-arabinofuranosyl)cytosine hydrochloride]",minimal effective dose,"L1210; Mus musculus, L1210, ip, 168 h, regimen 1 (daily for 7 days), read-out: dosages giving statistically significant increase in life-span",> 34 mg/kg
same,toxic deaths,L1210; any of the above regimens at the highest dosages,Toxic deaths were not seen
same,extension of life-span,"L1210; regimen 1 (daily for 7 days), 208 mg/kg",162%
same,indefinite cures (60 day survivors),"L1210; regimen 1 (daily for 7 days), 259 mg/kg",3 survivors
same,indefinite cures (60 day survivors),"L1210; regimen 1 (daily for 7 days), 346 mg/kg",1 survivor
same,indefinite cures (60 day survivors),"L1210; regimen 1 (daily for 7 days), 432 mg/kg",2 survivors
same,indefinite cures (60 day survivors),"L1210; regimen 1 (daily for 7 days), 720 mg/kg",1 survivor
same,extension of lifespan,L1210; regimen 2 (day 1 only),57%
same,extension of lifespan,L1210; regimen 3 (days 1 and 4 only),120%
same,extension of lifespan,"L1210; regimen 4 (days 1, 4 and 7)",197%
"Nc1ccn([C@@H]2O[C@H](CO)[C@@H](O)[C@@H]2O[N+](=O)[O-])c(=O)n1 [Nitrara-C, 1-(2-O-nitro-β-D-arabinofuranosyl)cytosine]",IC50,"CCFR-CEM/ara-C (mutant); CCFR-CEM/ara-C (mutant), deficient in deoxycytidine kinase, 48 hours",1000 µM
same,metabolised,[2],< 1%
same,IC50,"CCRF-CEM cells; read-out: IC50 (molar conc. for 50% inhib. of cell growth), with cytidine deaminase",0.6 µM
same,IC50,"CCRF-CEM cells; read-out: IC50 (molar conc. for 50% inhib. of cell growth), without cytidine deaminase",0.6 µM
same,IC50,"RPMI-6410 (B-cells); RPMI-6410 (B-cells), 48 hours",6 µM
same,IC50,"CCRF-CEM (T-cells); CCRF-CEM (T-cells), 48 hours",0.6 µM
same,decline in number of L1210 cells recovered from abdominal compartment,murine leukemia L1210,90%
same,IC50,"MOLT-4 (T-cells); MOLT-4 (T-cells), 48 hours",0.4 µM
same,dependence of cytotoxicity on phosphorylation (in words),human leukemia cells,cytotoxicity depends on phosphorylation
same,activity compared to ara-C (in words),human leukemia cells; [3],compares favorably to that of ara-C
same,cytotoxicity (in words),human leukemia cells; [3],highly cytotoxic to various human leukemia cells in culture
same,deamination by cytidine deaminase (in words),Cytidine deaminase,not deaminated by cytidine deaminase
same,Relative initial rate of deamination,Cytidine deaminase,< 1
